# Experimental data taken from patent publication US9234006B2, “Compounds” (Novacta Biosystems Limited, priority 2011, dated 2016).
# Counter-ions that a name gives are not always drawn. Where a SMILES comes first, the peptide text is derived from it. Bridges are numbered along the chain shown (N, C = ends). [ ]: non-standard residue; d: D form. The star is where a group is joined. ξ: configuration not given here. Thr(3ξ) = CC(O)[C@H](N)C(=O)O; Dab = NCC[C@H](N)C(=O)O; Aoc = NCCCCCCCC(=O)O; X2 = NC1CCCC1C(=O)*; Ahx = NCCCCCC(=O)O; X3 = O=C(C1CCNC1)*; Ava = NCCCCC(=O)O
# What was measured:
# Assay in all cases: MIC susceptibility testing, broth microdilution in CaMHB
# [1] = tested on: P. aeruginosa ATCC10145; assay type: cell-based, Pseudomonas aeruginosa
# Procedure: (§1) To evaluate the potency and spectrum of the compounds, susceptibility testing was performed against four strains of each of the four Gram negative pathogens, Escherichia coli, Pseudomonas aeruginosa, Klebsiella pneumoniae and Acinetobacter baumannii.
# (§2) The day before testing, 3 to 4 colonies were picked from fresh Mueller-Hinton Agar (MHA) plate and transferred into 10 mL of Cation adjusted MHB (CaMHB). Cultures were incubated at 37° C. 250 rpm for 18-20 hours before being diluted 100-fold in fresh CaMHB. The subcultures were grown further until the OD600 reached 0.2-0.3 corresponding to […]. The actively growing cultures were diluted 100-fold in fresh medium and used for the inoculum.
# (§3) The assays were performed in duplicate.
# (§4) Data was obtained under similar conditions to Table 4 except that different batches of cation-adjusted Muller-Hinton broth were used. The MIC values for these compounds are compared with those values obtained for Polymyxin B, Colistin Sulphate, CB-182,804 and NAB739 (as the TFA salt). CB-182,804 is a polymyxin decapeptide derivative with an aryl urea substituent at the N-terminus, which has been claimed to have lower toxicity than Polymyxin B (compound 5 in WO 2010/075416. See page 37). NAB739 has been described previously by Vaara et al.
# [2] = tested on: P. aeruginosa ATCCCRM-9027; assay type: cell-based, Pseudomonas aeruginosa
# Procedure: as §1, §2, §3, §4
# [3] = tested on: P. aeruginosa ATCC27853; assay type: cell-based, Pseudomonas aeruginosa
# Procedure: as §1, §2, §3, §4
# [4] = tested on: P. aeruginosa ATCC 9721; assay type: cell-based, Pseudomonas aeruginosa
# Procedure: as §1, §2, §3, §4
# [5] = tested on: K. pneumoniae NCTC7427; assay type: cell-based, Klebsiella pneumoniae
# Procedure: as §1, §2, §3, §4
# [6] = tested on: K. pneumoniae ATCCBAA-1706; assay type: cell-based, Klebsiella pneumoniae
# Procedure: as §1, §2, §3, §4
# [7] = tested on: K. pneumoniae NCTC8172; assay type: cell-based, Klebsiella pneumoniae
# Procedure: as §1, §2, §3, §4
# [8] = tested on: K. pneumoniae ATCC 4352; assay type: cell-based, Klebsiella pneumoniae
# Procedure: as §1, §2, §3, §4
# [9] = tested on: E. coli ATCC700928; assay type: cell-based, Escherichia coli
# Procedure: as §1, §2, §3, §4
# [10] = tested on: E. coli NCTC12900; assay type: cell-based, Escherichia coli
# Procedure: as §1, §2, §3, §4
# [11] = tested on: E. coli ATCC25922; assay type: cell-based, Escherichia coli
# Procedure: as §1, §2, §3, §4
# [12] = tested on: A. baumannii NCTC13423; assay type: cell-based, Acinetobacter baumannii
# Procedure: as §1, §2, §3, §4
# [13] = tested on: A. baumannii NCTC7844; assay type: cell-based, Acinetobacter baumannii
# Procedure: as §1, §2, §3, §4
# [14] = tested on: A. baumannii ATCC19606; assay type: cell-based, Acinetobacter baumannii
# Procedure: as §1, §2, §3, §4
# [15] = tested on: A. baumannii ATCCBAA-747; assay type: cell-based, Acinetobacter baumannii
# Procedure: as §1, §2, §3, §4
# [16] = tested on: E. coli NCTC9001; assay type: cell-based, Escherichia coli
# Procedure: as §1, §2, §3, §4
# [17] = P. aeruginosa ATCCCRM-9027, Table 4
# [18] = P. aeruginosa ATCC 9721, Table 4
# [19] = K. pneumoniae ATCC 4352, Table 4
# [20] = Table 4A, different batches of cation-adjusted Muller-Hinton broth
Structure (SMILES),MIC ([1]; Table 4),"MIC [2, 17]",MIC ([3]; Table 4),"MIC [4, 18]",MIC ([5]; Table 4),MIC ([6]; Table 4),MIC ([7]; Table 4),"MIC [8, 19]",MIC ([9]; Table 4),MIC ([10]; Table 4),MIC ([11]; Table 4),MIC ([12]; Table 4),MIC ([13]; Table 4),MIC ([14]; Table 4),MIC ([15]; Table 4),MIC ([16]; Table 4),other results
"CC(C)C[C@@H]1NC(=O)[C@@H](Cc2ccccc2)NC(=O)[C@H](CCN)NC(=O)[C@@H](NC(=O)[C@H](CCN)NC(=O)[C@@H](NC(=O)C2CCNC2)C(C)O)CCNC(=O)[C@H](C(C)O)NC(=O)[C@H](CCN)NC(=O)[C@H](CCN)NC1=O (stereo partly drawn) [Example 13, [3-(R,S)-Pyrrolidine-3-carbonyl] Polymyxin B Nonapeptide, Sulphate Salt] (X3-[Thr(3ξ)][Dab][Dab][Dab][dF]L[Dab][Dab][Thr(3ξ)]; lactam 3-C)",0.5 micrograms/mL,2 micrograms/mL,0.25 micrograms/mL,0.125 micrograms/mL,0.25 micrograms/mL,1 micrograms/mL,4 micrograms/mL,0.5 micrograms/mL,0.25 micrograms/mL,2 micrograms/mL,0.5 micrograms/mL,2 micrograms/mL,4 micrograms/mL,0.5 micrograms/mL,4 micrograms/mL,,
"CC(C)C[C@@H]1NC(=O)[C@@H](Cc2ccccc2)NC(=O)[C@H](CCN)NC(=O)[C@@H](NC(=O)[C@H](CCN)NC(=O)[C@@H](NC(=O)CN)C(C)O)CCNC(=O)[C@H](C(C)O)NC(=O)[C@H](CCN)NC(=O)[C@H](CCN)NC1=O (stereo partly shown) [Example 3, 2-Aminoethanoyl Polymyxin B Nonapeptide, Sulphate Salt] (H-G[Thr(3ξ)][Dab][Dab][Dab][dF]L[Dab][Dab][Thr(3ξ)]; lactam 4-C)",0.25 micrograms/mL,0.125 micrograms/mL,0.5 micrograms/mL,0.125 micrograms/mL,0.5 micrograms/mL,16 micrograms/mL,>32 micrograms/mL,1 micrograms/mL,4 micrograms/mL,8 micrograms/mL,2 micrograms/mL,16 micrograms/mL,16 micrograms/mL,2 micrograms/mL,>32 micrograms/mL,4 micrograms/mL,
"CC(C)C[C@@H]1NC(=O)[C@@H](Cc2ccccc2)NC(=O)[C@H](CCN)NC(=O)[C@@H](NC(=O)[C@H](CCN)NC(=O)[C@@H](NC(=O)CCCCCCCN)C(C)O)CCNC(=O)[C@H](C(C)O)NC(=O)[C@H](CCN)NC(=O)[C@H](CCN)NC1=O (stereo partly shown) [Example 9, 8-Aminooctanoyl Polymyxin B Nonapeptide, Sulphate Salt] (H-[Aoc][Thr(3ξ)][Dab][Dab][Dab][dF]L[Dab][Dab][Thr(3ξ)]; lactam 4-C)",2 micrograms/mL,0.5 micrograms/mL,0.5 micrograms/mL,0.5 micrograms/mL,0.5 micrograms/mL,0.5 micrograms/mL,>32 micrograms/mL,0.5 micrograms/mL,1 micrograms/mL,1 micrograms/mL,2 micrograms/mL,>32 micrograms/mL,>32 micrograms/mL,16 micrograms/mL,>32 micrograms/mL,2 micrograms/mL,
"CC(C)C[C@@H]1NC(=O)[C@@H](Cc2ccccc2)NC(=O)[C@H](CCN)NC(=O)[C@@H](NC(=O)[C@H](CCN)NC(=O)[C@@H](NC(=O)CCCCN)C(C)O)CCNC(=O)[C@H](C(C)O)NC(=O)[C@H](CCN)NC(=O)[C@H](CCN)NC1=O (stereo partly shown) [Example 15, 5-Aminopentanoyl polymyxin B nonapeptide] (H-[Ava][Thr(3ξ)][Dab][Dab][Dab][dF]L[Dab][Dab][Thr(3ξ)]; lactam 4-C)",,,,,,,,,,,,,,,,,"MIC [1, 20]: 1 micrograms/mL; MIC ([2]; P. aeruginosa AATCCRM 9027, Table 4A, different batches of cation-adjusted Muller-Hinton broth): 0.125 micrograms/mL; MIC [3, 20]: 0.25 micrograms/mL; MIC ([4]; P. aeruginosa ATCC9721, Table 4A, different batches of cation-adjusted Muller-Hinton broth): 0.125 micrograms/mL; MIC [5, 20]: 0.25 micrograms/mL; MIC [6, 20]: 0.5 micrograms/mL; MIC [7, 20]: 4 micrograms/mL; MIC ([8]; K. pneumoniae ATCC4352, Table 4A, different batches of cation-adjusted Muller-Hinton broth): 0.5 micrograms/mL; MIC [9, 20]: 1 micrograms/mL; MIC [10, 20]: 2 micrograms/mL; MIC [11, 20]: 2 micrograms/mL; MIC [16, 20]: 2 micrograms/mL; MIC [12, 20]: 4 micrograms/mL; MIC [13, 20]: 8 micrograms/mL; MIC [14, 20]: 1 micrograms/mL; MIC [15, 20]: 8 micrograms/mL"
"CC(C)C[C@@H]1NC(=O)[C@@H](Cc2ccccc2)NC(=O)[C@H](CCN)NC(=O)[C@@H](NC(=O)[C@H](CCN)NC(=O)[C@@H](NC(=O)C2CCCC2N)C(C)O)CCNC(=O)[C@H](C(C)O)NC(=O)[C@H](CCN)NC(=O)[C@H](CCN)NC1=O (stereo partly drawn) [Example 11, (1R,S/2R,S)-2-Aminocyclopentanecarbonyl Polymyxin B Nonapeptide, Sulphate Salt] (X2-[Thr(3ξ)][Dab][Dab][Dab][dF]L[Dab][Dab][Thr(3ξ)]; lactam 3-C)",0.25 micrograms/mL,0.125 micrograms/mL,0.125 micrograms/mL,0.25 micrograms/mL,0.25 micrograms/mL,0.25 micrograms/mL,2 micrograms/mL,0.5 micrograms/mL,0.125 micrograms/mL,2 micrograms/mL,2 micrograms/mL,0.5 micrograms/mL,4 micrograms/mL,2 micrograms/mL,1 micrograms/mL,0.5 micrograms/mL,
"CC(C)C[C@@H]1NC(=O)[C@@H](Cc2ccccc2)NC(=O)[C@H](CCN)NC(=O)[C@@H](NC(=O)[C@H](CCN)NC(=O)[C@@H](NC(=O)CCCCCN)C(C)O)CCNC(=O)[C@H](C(C)O)NC(=O)[C@H](CCN)NC(=O)[C@H](CCN)NC1=O (stereo partly shown) [Example 7, 6-Aminohexanoyl Polymyxin B Nonapeptide, Sulphate Salt] (H-[Ahx][Thr(3ξ)][Dab][Dab][Dab][dF]L[Dab][Dab][Thr(3ξ)]; lactam 4-C)",,0.25 micrograms/mL,0.5 micrograms/mL,,0.25 micrograms/mL,0.06 micrograms/mL,>32 micrograms/mL,0.5 micrograms/mL,,4 micrograms/mL,2 micrograms/mL,0.5 micrograms/mL,16 micrograms/mL,,8 micrograms/mL,8 micrograms/mL,
